The source of these data is patent US20090232909A1, “Method for determining physiological effects of hemoglobin” (priority 1999, published 2009).

Bounds are passed on as bounds.

For one assay, the target named is T1, oxyHb (Homo sapiens, UniProt P68871+P69905).
T1 construct: purchased Apex Bioscience (Research Triangle Park, N.C.)
The experiment in a line: Nitrosyl content of normoxic oxyHb after exposure to NO, photolysis-chemiluminescence. Type of assay: biochemical. On the procedure:
Nitroso/nitrosyl derivatives of Hb were measured using a photolysis-chemiluminescence technique [6-fold excess HgCl2 over protein was added to displace S-nitrosothiol (SNO) (Stamler, J. S., et al., Science, 276:2034-2037, 1997)]. Samples were kept on ice for a period of 5 minutes to 2 hours before analyses. MetHb was monitored by UV-visible spectroscopy as the difference absorption above the linear baseline (600-700 nm), and EPR (below).
(A) Nitrosyl content of oxyHb (10 mM phosphate 100 μM DTPA, pH 7.4) after exposure to 1.2 μM NO, as measured by photolysis-chemiluminescence (Stamler, J. S., et al., Science, 276:2034-2037, 1997). Nitrosyl yield increases as a function of Hb concentration (P<0.05). Solid symbols, absolute yield of NO bound to Hb (FeNO plus SNO); open symbols, percentage of NO added. Data shown are the average of 7 to 19 experiments±SE. (B) Standard difference spectra of metHb (solid line), deoxyHb (dotted line), and iron nitrosylHb (dashed line) vs. oxyHb. (C) Difference spectra generated from the exposure of NO to normoxic (≈99% oxygen saturation) Hb. NO was added (in 10 aliquots totaling 2.2 μM) to 33 μM Hb in 100 mM phosphate (solid line) or 10 mM phosphate (dotted line) or 10 mM phosphate plus 0.05% borate (dashed line). […] Specifically, spectra in C were fitted, by a least-squares process, to either the simple competition model or the cooperativity model without a mass balance constraint. Cooperativity is present if add increases above that reported in the literature, as a function of oxygen tension.
(A) SOD increases the yield of NO bound to Hb. The experiments in FIG. 3A were repeated in the absence (solid line; 1.2 μM NO) or presence (dashed line; 1.5 μM NO) of 1, 190 units/ml of SOD, which enhances the yield of nitrosyl species to approximately 100% of the NO added. Similar nitrosyl yields were obtained by using stroma-free Hb (25 μM), which is enriched in endogenous SOD (open circle). Data shown are the average of five to nine experiments±SE. (B) EPR spectrum of a DNIC formed by exposure of oxyHb (≈99% sat; 3.93 mM) to NO (36 μM). (C)S-nitrosoHb and iron nitrosylHb formed by exposure of oxyHb (=99% sat., 48 μM) to NO (1.2 μM). SNO (hatched bar) and FeNO (solid bar) were measured by photolysis-chemiluminescence (Stamler, J. S., et al., Science, 276:2034-2037, 1997). Data shown are the average of 12 experiments±SE. (D) Measurement of intraerythrocytic S-nitrosoHb and iron nitrosylHb formed by exposure of oxygenated RBCs (mean [Hb], 25 μM) to 0.3 μM NO. Isolation of Hb and measurements were as previously described (Stamler, J. S., et al., Science, 276:2034-2037, 1997). Data are the mean of 12 experiments±SE.

The target in another assay is Hb (Homo sapiens, UniProt P68871+P69905). The experiment in a line: EPR of iron nitrosyl-Hb formed by limiting NO with variously oxygenated Hb. The class given is biochemical. Further details: purchased Apex Bioscience (Research Triangle Park, N.C.). From the text: To investigate the reaction of NO with oxyHb, we begin by adopting the conventional viewpoint that: NO consumption involves a competition between the oxidation reaction (Eq. 1) and the adduct-forming addition reaction (Eq. 2); and that the specific rate constants for these reactions, namely kox and kadd, are independent of the degree of oxygen saturation (Y) of the hemes.
[Fe(II)NO]/[NO]0=1−Y/[1−Y+κY] [4]
HbA0 was obtained from Apex Bioscience (Research Triangle Park, N.C.). Buffer exchange was achieved by dialysis. Deoxygenation was performed by gas exchange with argon in a tonometer. NO was added from a stock solution prepared under ultrapure helium and purified across alkali and cold traps. Stock solutions of NO were prepared in phosphate buffered saline containing 100 μM DTPA, pH 7.4. NO injections were made via a gas tight Hamilton syringe with Teflon seal. The concentration of NO in stock solutions was assayed by electrode and by a Sievers 280 NO analyzer (Boulder Colo.).
EPR spectroscopy was carried out with samples in 4-mm i.d. fused silica tubes, at 76° K, on a Varian E-9 spectrometer. UV-visible spectra were taken after NO addition. The sample was then placed in a deoxygenated EPR tube and plunged into liquid N2. EPR spectra of nitrosylHb or dinitrosyl iron complexes (DNICs) were recorded in a single 4-min. scan over 400 G on a Varian E-9 spectrometer operating at 9.274 GHz, with 10-mW microwave power, 10-20 G amplitude of field modulation at 100 kHz, and time constant of 0.250 sec. Spectra of high-spin metHb were recorded with a scan of 1000 G, 20 G modulation amplitude, time constant of 0.128 sec, under otherwise identical conditions. NitrosylHb was measured by double integration of EPR spectra and by comparison to EPR spectra of Hb(NO)4 standardized with UV-visible spectroscopy. The reproducibility of nitrosylHb measurements was estimated to be ±6% by repeated trials.
(A) EPR spectra of iron-nitrosyl Hb derivatives formed by incubation of 19 μM NO with 393 μM Hb at various degrees of oxygen saturation in 10 mM phosphate buffer, pH 7.4. […]

For `[N]=O` [NO, nitric oxide], on oxyHb (1.2 μM NO added to 48 μM oxyHb), the nitrosyl yield result is reported as “approximately 500 nM” and the “share of nitrosyl yield that is SNO” value was “≈ 80%”. The “nitrosyl yield relative to the [Hb]” value on oxyHb (1.2 μM NO, ≈99% O2 saturation, 10 mM phosphate) fell in the range of 3 to 0.6%. The “maximum yield of nitrosyl species” value on oxyHb (1.2 μM NO, ≈99% O2 saturation, 10 mM phosphate, increasing [Hb]) is “approximately 50 % of NO added”. In addition, the “nitrosyl yields under normoxic conditions” value at oxyHb (heme vacancies only ≈1%) is listed as ≤ 6 % of Hb. At Hb (10 mM phosphate), the “decrease of K over the 0 to 80% range of oxygen saturation” value was 7 fold. Also, on Hb (10 mM phosphate, at 90% saturation), the “decrease of K by extrapolation” value is given as 100 fold. In addition, on Hb (100 mM phosphate, pH 7.4, average of the two curves), the “K (κ = kox/kadd) from fit of Eq. 4” value is 1.40±0.06.
